This is an account of results in US20080125408A1, “PENEM PRODRUG” (Pfizer Inc, priority 2006, published 2008).

The structures appear in SMILES notation. In brackets after ≈: the same amount, converted by molar mass. Read-outs that look alike come from different tables or passages of the source.

One series relates to Alloiococcus otitidis. Put plainly: MIC90 of sulopenem (in vitro activity). Type of series: cell-based. The following applies: Alloiococcus otitis.
Another series has as its system Citrobacter diversus. Put plainly: MIC90 of sulopenem (in vitro activity). Type of series: cell-based. Particulars: Citrobacter koseri.
Another series has as its system Enterobacter cloacae. The series is described as follows: MIC90 of sulopenem (in vitro activity). In kind it is cell-based.
The test system of series [1] is Streptococcus pneumoniae penicillin-susceptible. The series is described as follows: MIC90 of sulopenem (in vitro activity). Type of series: cell-based.
The test system of series [2] is Viridans Streptococcus group. The series is described as follows: MIC90 of sulopenem (in vitro activity). In kind it is cell-based.
Series [3] has as its system Streptococcus pneumoniae penicillin-resistant. The series is described as follows: MIC90 of sulopenem (in vitro activity). Type of series: cell-based.
A further series has as its system Enterobacter aerogenes. Put plainly: MIC90 of sulopenem (in vitro activity). Type of series: cell-based. The following applies: Klebsiella aerogenes.
The next series concerns Morganella morganii. The series is described as follows: MIC90 of sulopenem (in vitro activity). Type of series: cell-based.
The subject of a further series is Neisseria meningitides. The series is described as follows: MIC90 of sulopenem (in vitro activity). In kind it is cell-based.
A further series relates to Escherichia coli. The series is described as follows: MIC90 of sulopenem (in vitro activity). Type of series: cell-based.
For series [4], the system named is Staphylococcus saprophyticus. The series is described as follows: MIC90 of sulopenem (in vitro activity). Type of series: cell-based.
The test system of series [5] is Streptococcus pneumonia penicillin-intermediate. Put plainly: MIC90 of sulopenem (in vitro activity). Type of series: cell-based. The following applies: Streptococcus pneumoniae.
For series [6], the system named is Corynebacterium spp (not C. jeikeium). Put plainly: MIC90 of sulopenem (in vitro activity). Type of series: cell-based.
The test system of series [7] is Haemophilus influenzae β-lactamase+. Put plainly: MIC90 of sulopenem (in vitro activity). Type of series: cell-based.
For series [8], the system named is Moraxella catarrhalis β-lactamase−. Put plainly: MIC90 of sulopenem (in vitro activity). In kind it is cell-based.
A further series relates to Legionella pneumophila. Put plainly: microbe, parasite or virus in culture. In kind it is cell-based.
Series [9] has as its system Pseudomonas aeruginosa, Acinetobacter spp., Stenotrophomonas maltophilia, multi-resistant enterococci and methicillin-resistant staphylococci. The series is described as follows: Antibacterial spectrum: pathogens against which there is no activity. In kind it is cell-based.
The test system of series [10] is Streptococcus bovis (Group D). Put plainly: MIC90 of sulopenem (in vitro activity). In kind it is cell-based. The following applies: Streptococcus equinus.
For series [11], the system named is Staphylococcus aureus oxacillin-S. The series is described as follows: MIC90 of sulopenem (in vitro activity). Type of series: cell-based. On the procedure:
(§1) The in vitro activity of sulopenem (B9) (the parent acid) based on minimum inhibitory concentration (MIC) was evaluated against pathogens involved in […] community and hospital infections, as summarized in Table 1.

For the next series, the system named is Klebsiella oxytoca. The series is described as follows: MIC90 of sulopenem (in vitro activity). Type of series: cell-based. On the procedure:
as §1

A further series relates to Prevotella spp. Put plainly: MIC90 of sulopenem (in vitro activity). In kind it is cell-based. On the procedure:
as §1

Another series has as its system Salmonella/Shigella. The series is described as follows: MIC90 of sulopenem (in vitro activity). Type of series: cell-based. Here is the method:
as §1

The next series relates to Listeria monocytogenes. The series is described as follows: MIC90 of sulopenem (in vitro activity). Type of series: cell-based. On the procedure:
as §1

Series [12] relates to Streptococcus agalactiae (Group B). Put plainly: MIC90 of sulopenem (in vitro activity). In kind it is cell-based. On the procedure: as §1
The next series deals with Klebsiella pneumoniae. Put plainly: MIC90 of sulopenem (in vitro activity). In kind it is cell-based. On the procedure: as §1
In series [13] the test system is Haemophilus influenzae β-lactamase−. Put plainly: MIC90 of sulopenem (in vitro activity). In kind it is cell-based.
The conditions of series [14]: in vivo; cited from earlier work.
The test system of another series is Proteus mirabilis. Put plainly: MIC90 of sulopenem (in vitro activity). Type of series: cell-based.
Series [15] concerns Streptococcus pneumoniae levofloxacin-resistant. The series is described as follows: MIC90 of sulopenem (in vitro activity). In kind it is cell-based.
For the next series, the system named is Clostridium perfringens. The series is described as follows: microbe, parasite or virus in culture. In kind it is cell-based.
Series [16] relates to Moraxella catarrhalis β-lactamase+. Put plainly: MIC90 of sulopenem (in vitro activity). Type of series: cell-based.
The next series has as its system Bacteroides fragilis. Put plainly: MIC90 of sulopenem (in vitro activity). Type of series: cell-based.
The subject of series [17] is Klebsiella pneumoniae ESBL+. Put plainly: MIC90 of sulopenem (in vitro activity). In kind it is cell-based.
A further series has as its system Citrobacter freundii. Put plainly: MIC90 of sulopenem (in vitro activity). Type of series: cell-based.
The test system of series [18] is Streptococcus pyogenes (Group A). The series is described as follows: MIC90 of sulopenem (in vitro activity). In kind it is cell-based.
The conditions of series [19]: humans, about 500 mg equivalent dose; cited from earlier work.
A short description of series [20]: Equilibrium solubility in phosphate buffer pH 5. The following applies: phosphate buffer, pH 5, aqueous buffer, thermodynamic from solid.
Series [21] in a line: Liver S9 stability and conversion efficiency to sulopenem. The following applies: human; prodrug degradation; liver S9 1:10, 50 μM, pH 7.4, 37° C. In kind it is in vitro ADME, human. On the procedure: Oral bioavailability can be predicted variously by factors including one or more of (1) GI tract stability, (2) Caco-2 permeability, (3) efficiency of conversion to sulopenem, and (4) high solubility. Accordingly, the sulopenem prodrugs of the invention were evaluated, as detailed below, for stability in human intestinal juice (HIJ), efficiency of conversion to sulopenem in human liver homogenate, whole blood conversion and solubility as measured in phosphate buffer pH 5.0. Liver S9 was prepared fresh from liver chunks stored at −70° C. for each analysis completed. Approximately 5 g of frozen liver tissue was homogenized to uniformity in 15 mL of ice cold 100 mM potassium phosphate (pH 7.4) buffer. The homogenate was then centrifuged at 9000 g for 20 minutes at 5° C. to isolate the S9 supernatant fraction. Each incubation was run at a 1:10 dilution of the S9 supernatant in 100 mM potassium phosphate (pH 7.4) buffer. Reactions (1 mL) were initiated by the addition of substrate (50 μM final) at 37° C. Stability and conversion efficiency were assessed in 1 mL incubations with heparinized whole blood at 37° C. For both S9 homogenates and whole blood incubations, aliquots (75 μL) were obtained at 0, 0.5, 1, 2, 3, 5, 10, and 20 minutes and quenched in 150 μL of 80/20 acetonitrile/100 mM ammonium acetate pH 4.5 containing an internal standard (ampicillin, 5 μg/mL). Samples were centrifuged at 3000 g for 10 minutes and the supernatants transferred to injection vials. First order degradation of the prodrug was monitored by LC/MS/MS as described below. Conversion to sulopenem was expressed as a percentage of the molar equivalent (50 μM) in a fortified sample. The results of the S9 and whole blood stability and conversion studies are shown in Table 2, where single values represent an average of two duplicate determinations.

Series [22] in a line: Human Intestinal Juice (HIJ) stability studies. Particulars: pooled HIJ from 4 subjects, buffered pH 7.4, 37° C., substrate 1-300 μM; for Km: human, pooled human intestinal juice (HIJ). Type of series: in vitro ADME. Here is the method: In the HIJ experiments, HIJ from 4 individual subjects (1 mL each) was pooled with 1 mL of 600 mM potassium phosphate buffer pH 7.4. Aliquots of 300 μL×6 of the buffered human intestinal juice were incubated at 37° C. following fortification of substrate at concentrations of 300, 100, 30, 10, 3, and 1 μM. Two prodrug compounds could be run at the same time. Samples of 35 μL were taken at 0, 0.5, 1, 2, 10, and 20 minutes and quenched with 70 μL of 80/20 acetonitrile/100 mM ammonium acetate pH 4.5 containing an internal standard (ampicillin, 5 μg/mL). Samples were centrifuged at 3000 g for 10 minutes and the supernatants transferred to injection vials. First order degradation of the prodrug was monitored by LC/MS/MS as described below. The percentage of prodrug remaining versus time at each concentration was fitted to a first order decay function to determine the substrate depletion rate constant or kdep. A linear-log plot of kdep versus concentration could be fitted with the following equation where: [formula] […] In Michaelis-Menton terms, intrinsic clearance CLint represents the ratio of Vmax/Km when [S] is well below the Km. Substrate units for these studies were reported in μM and intrinsic clearance (CIint) in mL/min.

On to `C[C@@H](O)[C@H]1C(=O)N2C(C(=O)O)=C(S[C@H]3CC[S@@+]([O-])C3)S[C@H]12` [Sulopenem, (5R,6S)-6-[(1R)-1-hydroxyethyl]-7-oxo-3-[(1R,3S)-tetrahydro-1-oxido-3-thienylthio]-4-thia-1-azabicyclo[3.2.0]hept-2-ene-2-carboxylic acid], for which the MIC90 against Alloiococcus otitidis was 1 µg/mL (≈ 2.86 µM); in the series on Citrobacter diversus, 0.06 µg/mL (≈ 0.172 µM); in the series with Enterobacter cloacae, 1 µg/mL (≈ 2.86 µM); in series [1], 0.03 µg/mL (≈ 0.0858 µM); in [2] it was 0.25 µg/mL (≈ 0.715 µM); in series [3] it was 1 µg/mL (≈ 2.86 µM). The MIC90 in the series on Enterobacter aerogenes was 0.5 µg/mL (≈ 1.43 µM); in the series on Morganella morganii, 2 µg/mL (≈ 5.72 µM); against Neisseria meningitides, 0.06 µg/mL (≈ 0.172 µM); against Escherichia coli it was 0.06 µg/mL (≈ 0.172 µM); in series [4], 0.5 µg/mL (≈ 1.43 µM); in series [5], 0.25 µg/mL (≈ 0.715 µM). Further, the MIC90 in series [6] was 2 µg/mL (≈ 5.72 µM); in series [7] it was 0.5 µg/mL (≈ 1.43 µM); in series [8] it was 0.03 µg/mL (≈ 0.0858 µM); against Legionella pneumophila it was 0.06 µg/mL (≈ 0.172 µM); in [10] it was 0.06 µg/mL (≈ 0.172 µM); in [11], 0.125 µg/mL (≈ 0.358 µM). Besides, the MIC90 (in the series on Klebsiella oxytoca; against Prevotella spp; against Salmonella/Shigella; in the series on Listeria monocytogenes; in series [12]; against Klebsiella pneumoniae) was 0.125 µg/mL (≈ 0.358 µM) each time. Further, the MIC90 in [13] came to 0.25 µg/mL (≈ 0.715 µM); with Proteus mirabilis, 0.5 µg/mL (≈ 1.43 µM); in series [15], 0.5 µg/mL (≈ 1.43 µM); against Clostridium perfringens, 0.06 µg/mL (≈ 0.172 µM); in series [16], 0.125 µg/mL (≈ 0.358 µM); against Bacteroides fragilis it was 0.5 µg/mL (≈ 1.43 µM). Further, the results for the MIC90 (in series [17]; against Citrobacter freundii; in [18]) were 0.25 µg/mL (≈ 0.715 µM), 0.25 µg/mL (≈ 0.715 µM) and 0.03 µg/mL (≈ 0.0858 µM), respectively. Besides, the “antibacterial activity” value in [9] is “not active”. Moreover, the “oral bioavailability” value in series [14] is on record as “not appreciably orally bioavailable”.

Take `CC(O)C1C(=O)N2C(C(=O)OCOC(=O)C(C)(C)C)=C(SC3CC[S+]([O-])C3)SC12` (stereo not drawn) [POM ester]: in series [19], the “oral bioavailability” value is listed as “less than optimal oral bioavailability”.

As for `CCc1oc(=O)oc1COC(=O)C1=C(S[C@H]2CC[S@@+]([O-])C2)S[C@@H]2[C@@H]([C@@H](C)O)C(=O)N12` [Compound 1, (5-ethyl-2-oxo-1,3-dioxol-4-yl)methyl (5R,6S)-6-[(1R)-1-hydroxyethyl]-7-oxo-3-[[(1R,3S)-tetrahydro-1-oxido-3-thienyl]thio]-4-thia-1-azabicyclo[3.2.0]hept-2-ene-2-carboxylate], in [20], the concentration in solution (solubility) was 1200 µg/mL (≈ 2520 µM). Besides, the half-life at 50 µM in [21] was found to be 3.11 min. Also, in series [22], the Km came out at 120 µM and the “HIJ CLint” value was determined as 0.14 mL/min.

In [20], `Cc1oc(=O)oc1COC(=O)C1=C(S[C@H]2CC[S@@+]([O-])C2)S[C@@H]2[C@@H]([C@@H](C)O)C(=O)N12` [Compound C1, (5-Methyl-2-oxo-1,3-dioxol-4-yl)methyl (5R,6S)-6-[(1R)-1-hydroxyethyl]-7-oxo-3-[[(1R,3S)-tetrahydro-1-oxido-3-thienyl]thio]-4-thia-1-azabicyclo[3.2.0]hept-2-ene-2-carboxylate] returned a solubility of 453 µg/mL (≈ 981 µM). Moreover, the half-life at 50 µM in series [21] was determined as 2.1 min. In addition, in series [22], the Km is 172 µM and the “HIJ CLint” value is on record as 0.13 mL/min.

On to `CCCc1oc(=O)oc1COC(=O)C1=C(S[C@H]2CC[S@@+]([O-])C2)S[C@@H]2[C@@H]([C@@H](C)O)C(=O)N12` [Compound 2, (5-propyl-2-oxo-1,3-dioxol-4-yl)methyl (5R,6S)-6-[(1R)-1-hydroxyethyl]-7-oxo-3-[[(1R,3S)-tetrahydro-1-oxido-3-thienyl]thio]-4-thia-1-azabicyclo[3.2.0]hept-2-ene-2-carboxylate], for which, in [20], the solubility was found to be 507 µg/mL (≈ 1040 µM). In addition, in series [21], the half-life at 50 µM amounted to 3.62 min. Also, in series [22], the Km was determined as 22 µM and the “HIJ CLint” value was found to be 0.16 mL/min.
